# Data as given in patent US9790200B2, “Dihydroquinoline pyrazolyl compounds” (Hoffmann-La Roche Inc., priority 2015, dated 2017).
# What was measured:
# [1] = molecular target: T1, human CYP11B1 (Homo sapiens, UniProt P15538); test: G-402 cellular enzyme assay, human CYP11B1 (cortisol release, HTRF); format: cell-based; details: G-402 cells, 1 μM Deoxycortisol
# T1 construct: The expression plasmids contains the ORF for either human/cyno CYP11B1 or CYP11B2; expressed in transfected cells
# T1 sequence (P15538 25-503): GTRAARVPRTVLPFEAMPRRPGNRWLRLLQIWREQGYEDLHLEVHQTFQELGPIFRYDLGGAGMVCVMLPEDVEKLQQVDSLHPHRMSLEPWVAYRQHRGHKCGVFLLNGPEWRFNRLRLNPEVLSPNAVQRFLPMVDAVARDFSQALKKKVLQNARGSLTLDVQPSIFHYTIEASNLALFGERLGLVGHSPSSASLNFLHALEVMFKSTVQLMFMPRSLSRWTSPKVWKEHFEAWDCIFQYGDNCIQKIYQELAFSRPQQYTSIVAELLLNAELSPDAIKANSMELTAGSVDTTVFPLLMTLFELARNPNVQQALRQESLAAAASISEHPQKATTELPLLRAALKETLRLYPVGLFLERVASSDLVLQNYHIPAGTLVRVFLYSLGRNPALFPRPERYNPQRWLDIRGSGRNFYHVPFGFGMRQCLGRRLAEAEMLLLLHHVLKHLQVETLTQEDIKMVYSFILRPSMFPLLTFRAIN
# From the text: Herein we identified the use of the G-402 cell line as a host cell to ectopically express (transiently or stably) enzymes of the CYP11 family. Specifically we developed stable G-402 cells expressing ectopically human CYP11B1, human CYP11B2, human CYP11A1, cynmolgus CYP11B1 or cynomolgus CYP11B2 enzyme activity. Importantly the identified cell line G-402 expresses co-factors (adrenodoxin and adrenodoxin reductase) important for the activity of the CYP11 family and no relevant enzyme activity of the CYP11 family (in comparison to H295R cells) was detected in these cells. Therefore the G-402 cell line is uniquely suited as a host cell for the ectopic expression of enzymes from the CYP11 family.
# G-402 cells can be obtained from ATCC (CRL-1440) and were originally derived from a renal leiomyoblastoma.
# The expression plasmids contains the ORF for either human/cyno CYP11B1 or CYP11B2 under the control of a suitable promoter (CMV-promoter) and a suitable resistance marker (neomycin). […] Individual cell-clones are then selected and assessed for displaying the desired enzymatic activity using 11-Deoxycorticosterone (Cyp11B2) or 11-Deoxycortisol (Cyp11B1) as a substrate. […]
# [formula] wherein, A is the maximum y value, B is the EC50 factor determined using XLFit, C is the minimum y value and D is the slope value. […]
# [2] = tested on: rat model of chronic kidney disease; details: cited from earlier work; for plasma aldosterone: FAD286: 4 weeks of treatment, spironolactone: 4 and 8 weeks of treatment; for angiotensin II and salt-stimulated PAI-1 mRNA expression in the aorta and the heart / renal effects of angiotensin II and high salt (albuminuria, azotemia, renovascular hypertrophy, glomerular injury, PAI-1, osteopontin mRNA, tubulointerstitial fibrosis): rat, in vivo
# [3] = tested on: patients with primary aldosteronism; details: cited from earlier work
# [4] = tested on: rats with experimental heart failure; details: rat, in vivo; cited from earlier work
Structure (SMILES),plasma aldosterone [2],angiotensin II and salt-stimulated PAI-1 mRNA expression in the aorta and the heart [2],"renal effects of angiotensin II and high salt (albuminuria, azotemia, renovascular hypertrophy, glomerular injury, PAI-1, osteopontin mRNA, tubulointerstitial fibrosis) [2]",also measured
"CN1C(=O)CCc2c1ccc(-c1n[nH]cc1COC1CN(C(=O)c3cnn(C)c3)C1)c2F [Example 66, 5-Fluoro-1-methyl-6-[4-[[1-(1-methylpyrazole-4-carbonyl)azetidin-3-yl]oxymethyl]-1H-pyrazol-3-yl]-3,4-dihydroquinolin-2-one]",–,–,–,EC50 [1]: > 30 nM
CC(=O)S[C@@H]1CC2=CC(=O)CC[C@]2(C)[C@H]2CC[C@@]3(C)[C@@H](CC[C@@]34CCC(=O)O4)[C@H]12 [spironolactone],increased,enhanced,prevented these renal effects,–
N#Cc1ccc([C@H]2CCc3cncn32)c(F)c1 [LCI699],–,–,–,"blood pressure ([3]; human, in vivo): mildly decreased; hypokalemia ([3]; human, in vivo): corrected; circulating aldosterone levels ([3]; orally active): significantly lower"
N#Cc1ccc(C2CCCc3cncn32)cc1 (centres unmarked) [FAD286],reduced,not,prevented these renal effects,blood pressure and cardiovascular function and structure [4]: improved
